These results are taken from ChEMBL document CHEMBL1132050, “Synthesis of novel analogues of the delta opioid ligand SNC-80 using AlCl3-promoted aminolysis” (Bioorg Med Chem Lett, 1999).

For test [1], the target named is T1, Delta-type opioid receptor (Homo sapiens, UniProt P41143). Description: Inhibition of binding of [3H]- -naltrindole (0.15 nM) to membranes from CHO cells expressing Opioid receptor delta 1. Format: cell membranes.
Test [2] relates to Mus musculus. The experiment in a line: Antinociceptive activity against acetic acid induced abdominal constriction model in mice by sc administration. The class given is functional. The note with it: Abdomen.
Test [3] concerns Cricetinae gen. sp. The experiment in a line: Potency in the Hamster vas deferens (HVD) functional assay was determined […].
Test [4] relates to Mus musculus. Description: Potency in the Mouse vas deferens (MVD) functional assay was determined […].
Another test addresses Mu-type opioid receptor (Rattus norvegicus, UniProt P33535). The experiment in a line: Binding affinity towards mu opioid receptor using [3H]- -DAMGO (1.5 nM) as radioligand in rat brain membranes. The class given is cell membranes.
The subject of test [5] is Cricetinae gen. sp. The experiment in a line: Maximum efficacy in the Hamster vas deferens (HVD) functional assay was determined […] at a compound concentration of 10E-10 to 10E-5.
The test system of test [6] is Mus musculus. The experiment in a line: Maximum efficacy in Mouse vas deferens (MVD) functional assay was determined […] at a compound concentration of 10E-10 to 10E-5.
The target in test [7] is Kappa-type opioid receptor (Cavia porcellus, UniProt P41144). The experiment in a line: Binding affinity towards Opioid receptor kappa 1 using [3H]- U-69,593 (1.5 nM) as radioligand in guinea pig brain membranes. Format: cell membranes, Membrane.
Kappa-type opioid receptor, sequence (P41144 whole entry): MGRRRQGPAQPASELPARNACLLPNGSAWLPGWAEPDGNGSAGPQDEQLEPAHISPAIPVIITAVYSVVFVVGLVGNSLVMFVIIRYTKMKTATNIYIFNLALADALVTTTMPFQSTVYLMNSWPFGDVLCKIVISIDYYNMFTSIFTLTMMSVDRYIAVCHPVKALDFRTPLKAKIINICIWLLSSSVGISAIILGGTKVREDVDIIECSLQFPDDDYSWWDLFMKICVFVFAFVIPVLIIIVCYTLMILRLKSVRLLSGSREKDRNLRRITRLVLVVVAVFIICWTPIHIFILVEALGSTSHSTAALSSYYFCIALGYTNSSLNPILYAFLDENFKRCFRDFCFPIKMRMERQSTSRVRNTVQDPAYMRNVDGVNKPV
The target in test [8] is T1, Delta-type opioid receptor. Description: Compound was tested for inhibition of binding of [3H]- -naltrindole (0.15 nM) to membranes from CHO cells expressing human delta opioid receptor. The class given is cell membranes.

Mu-type opioid receptor, sequence (P33535 whole entry): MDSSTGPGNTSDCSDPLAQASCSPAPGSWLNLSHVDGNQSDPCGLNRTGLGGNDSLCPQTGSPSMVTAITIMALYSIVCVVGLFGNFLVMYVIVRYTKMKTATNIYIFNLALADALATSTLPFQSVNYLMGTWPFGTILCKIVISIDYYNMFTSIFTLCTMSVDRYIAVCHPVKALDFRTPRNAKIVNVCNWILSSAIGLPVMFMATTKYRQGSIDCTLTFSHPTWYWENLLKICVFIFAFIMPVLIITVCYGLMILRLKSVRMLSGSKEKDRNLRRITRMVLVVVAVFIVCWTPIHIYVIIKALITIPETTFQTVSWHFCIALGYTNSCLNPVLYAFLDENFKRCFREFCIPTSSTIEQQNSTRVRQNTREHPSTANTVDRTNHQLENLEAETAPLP
T1 sequence (P41143 whole entry): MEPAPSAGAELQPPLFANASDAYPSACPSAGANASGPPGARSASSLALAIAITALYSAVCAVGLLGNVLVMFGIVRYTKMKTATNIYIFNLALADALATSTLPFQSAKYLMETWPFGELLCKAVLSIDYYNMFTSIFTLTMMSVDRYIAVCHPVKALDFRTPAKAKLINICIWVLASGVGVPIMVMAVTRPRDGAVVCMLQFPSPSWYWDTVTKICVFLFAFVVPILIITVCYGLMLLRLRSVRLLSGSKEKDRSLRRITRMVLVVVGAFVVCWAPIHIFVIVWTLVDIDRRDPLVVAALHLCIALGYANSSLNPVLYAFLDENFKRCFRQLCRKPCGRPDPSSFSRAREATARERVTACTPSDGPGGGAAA

As usually defined, the IC50 is the concentration that gives 50% inhibition. High values mean lower potency, low ones higher potency. For orientation: ED50 means the dose at which the effect has come halfway, by size or by number of responders. Read a low ED50 as greater potency. As to `CCN(CC)C(=O)c1ccc(C(c2ccccc2)N2CCN(Cc3ccc4c(c3)OCO4)CC2)cc1` (centres undefined), the half-maximal inhibitory concentration (IC50) is 1.4 nM in test [1]; 2510 nM in the test on Cricetinae gen. sp. [3]; 100 nM with Mus musculus [4]; above 10000 nM on Mu-type opioid receptor; 3900 nM in test [7]. Moreover, the 50% effective dose (ED50) in the test on Mus musculus [2] was above 200 µmol/kg. The Efficacy with Cricetinae gen. sp. [5] came out at 52%; in the test on Mus musculus [6], 98%.
For `CCN(CC)C(=O)c1ccc(C(c2ccccc2)N2CCN(CC3CCc4ccccc4C3)CC2)cc1` (centres undefined), the results for the IC50 (in [1]; on Mu-type opioid receptor) were 1.8 nM and 6240 nM, respectively.
In [1], `CCN(CC)C(=O)c1ccc(C(c2ccccc2)N2CC(C)NC(C)C2)cc1` (centres undefined) returned a half-maximal inhibitory concentration (IC50) of 42 nM.
Same read-out and setting: the value for `CCN(CC)C(=O)c1ccc(C(c2ccccc2)N2CCNC3CCCCC32)cc1` (centres undefined) was 29 nM.
For the compound `CCN(CC)C(=O)c1ccc(C(c2ccccc2)N2CCN(CCO)CC2)cc1` (centres undefined), the results for the IC50 (in test [1]; on Mu-type opioid receptor) were 5.5 nM and above 10000 nM, respectively.
For `CCCN1CCN(C(c2ccccc2)c2ccc(C(=O)N(CC)CC)cc2)CC1` (centres undefined), the concentration for half-maximal inhibition (IC50) is 11.4 nM in test [1] and above 10000 nM at Mu-type opioid receptor.
In turn, `C=CCN1CCCN(C(c2ccccc2)c2ccc(C(=O)N(CC)CC)cc2)CC1` (centres undefined) showed a 50% inhibitory concentration (IC50) in test [8] of 13 nM.
Consider `CCN(CC)C(=O)c1ccc(C(NCC(C)(C)N)c2ccccc2)cc1` (centres undefined), for which the IC50 in test [1] came out at 120 nM.
`CCN(CC)C(=O)c1ccc(C(c2ccccc2)N2CCN(C3CCCC3)CC2)cc1` (centres undefined) yielded an IC50 in test [1] of 5.8 nM.
The compound `CCN(CC)C(=O)c1ccc(C(c2ccccc2)N(CC)CCN(C)C)cc1` (centres undefined) yielded an IC50 in test [1] of 845 nM.
Take `CCN(CC)C(=O)c1ccc(C(c2ccccc2)N(CCN(C)C)Cc2ccccc2)cc1` (centres undefined): the IC50 in test [1] was 70 nM; in the test with Cricetinae gen. sp. [3] it was above 10000 nM; in the test on Mus musculus [4], above 10000 nM; at Mu-type opioid receptor, above 10000 nM; in test [7], 483 nM. Further, in the test on Mus musculus [2], it took a dose of 48.4 µmol/kg to reach the 50% effect level (ED50). Also, the Efficacy in the test on Cricetinae gen. sp. [5] came to 13%; with Mus musculus [6], 7%.
For `CCN(CC)C(=O)c1ccc([C@H](c2ccccc2)N2C[C@@H](C)N(Cc3ccc4c(c3)OCO4)C[C@@H]2C)cc1`, the IC50 in [1] is 0.54 nM; in the test on Cricetinae gen. sp. [3] it was 1260 nM; in the test with Mus musculus [4], 39.8 nM; at Mu-type opioid receptor, 702 nM. Besides, the median effective dose (ED50) in the test with Mus musculus [2] was above 200 µmol/kg. For the same compound, the Efficacy came to 68% in the test on Cricetinae gen. sp. [5] and 100% in the test on Mus musculus [6].
As for `CCN(CC)C(=O)c1ccc(C(c2ccccc2)N2CCN(c3ccc(O)cc3)CC2)cc1` (centres undefined), the values for the IC50 (in test [1]; at Mu-type opioid receptor) were 10 nM and above 10000 nM, respectively.
Turning to `C=CCN1CCN(C(c2ccccc2)c2ccc(C(=O)N(CC)CC)cc2)CC1` (stereo in doubt; 2), the IC50 is 4.1 nM in test [1]; above 10000 nM with Cricetinae gen. sp. [3]; 631 nM in the test with Mus musculus [4]; above 10000 nM on Mu-type opioid receptor; 1990 nM in test [7]. The same compound came in with an ED50 in the test on Mus musculus [2] of 145 µmol/kg. Also, the Efficacy with Cricetinae gen. sp. [5] came out at 4%; with Mus musculus [6] it was 87%.
As for `C=CCN1CCN(C(c2ccccc2)c2ccc(C(=O)N(CC)CC)cc2)CC1` (stereo in doubt; 6 {1} (2)), the half-inhibitory concentration (IC50) in test [1] was 8 nM.
As for `C=CCN1CCN(C(c2ccccc2)c2ccc(C(=O)N(CC)CC)cc2)CC1` (stereo in doubt; 7 {1} (2)), the IC50 was 8 nM in [1] and above 50000 nM on Mu-type opioid receptor.
For the compound `C=CCN1C[C@H](C)N([C@H](c2ccc(C(=O)N(CC)CC)cc2)c2cccc(OC)c2)C[C@H]1C` [SNC-80], it took a dose of 30.4 µmol/kg to reach the 50% effect level in the test with Mus musculus [2] (ED50). For the same compound, the results for the IC50 (with Cricetinae gen. sp. [3]; with Mus musculus [4]; in test [7]) were 50.1 nM, 7.94 nM and 4100 nM, respectively. Besides, the Efficacy was found to be 90% in the test with Cricetinae gen. sp. [5] and 100% in the test on Mus musculus [6].
